In ChEMBL document CHEMBL6087454, “Identification of Novel Organo-Se BTSA-Based Derivatives as Potent, Reversible, and Selective PPARγ Covalent Modulators for Antidiabetic Drug Discovery” (J Med Chem, 2025):
The source made the active and inactive calls. The rule behind the calls is not given here.

Tests used:
[1] = target: T1, Peroxisome proliferator-activated receptor gamma (Homo sapiens, UniProt P37231); assay: Displacement of fluormone pan-PPAR green from recombinant GST-tagged human PPAR-gamma ligand binding domain (E235 to Y505 residues) extracted from Escherichia coli BL21 (DE3) cells by TR-FRET assay
T1 sequence (P37231 whole entry): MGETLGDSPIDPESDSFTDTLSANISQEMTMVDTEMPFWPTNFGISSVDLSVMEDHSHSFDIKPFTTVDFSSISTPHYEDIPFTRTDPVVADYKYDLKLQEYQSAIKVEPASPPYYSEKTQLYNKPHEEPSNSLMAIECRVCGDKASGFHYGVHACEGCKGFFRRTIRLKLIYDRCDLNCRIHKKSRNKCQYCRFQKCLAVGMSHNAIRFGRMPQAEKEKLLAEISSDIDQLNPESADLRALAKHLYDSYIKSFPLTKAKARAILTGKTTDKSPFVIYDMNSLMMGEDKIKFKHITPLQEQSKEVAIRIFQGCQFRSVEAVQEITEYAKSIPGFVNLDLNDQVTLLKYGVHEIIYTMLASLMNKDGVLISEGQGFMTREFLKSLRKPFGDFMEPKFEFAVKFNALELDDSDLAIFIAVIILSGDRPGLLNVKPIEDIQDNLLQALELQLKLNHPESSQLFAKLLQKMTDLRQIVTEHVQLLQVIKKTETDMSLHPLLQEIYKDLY

[2] = target: T1, Peroxisome proliferator-activated receptor gamma; assay: Binding affinity to recombinant GST-tagged human PPAR-gamma ligand binding domain (E235 to Y505 residues) extracted from Escherichia coli BL21 (DE3) cells assessed as inhibition constant in presence of fluormone pan-PPAR green tracer by TR-FRET assay
[3] = Toxicity in male db/db mouse model assessed as increase in liver weight at 10 mg/kg/day, po administered for 4 weeks; type: organism-based; conditions: in vivo, 672 h
[4] = Toxicity in male db/db mouse model assessed as increase in lipid accumulation in liver at 10 mg/kg/day, po administered for 4 weeks by Oil red O staining based analysis; type: organism-based; conditions: in vivo, 672 h
[5] = target: T2, Peroxisome proliferator-activated receptor gamma (Homo sapiens) (UniProt P37231); assay: Covalent binding affinity to recombinant PPAR-gamma ligand binding domain (unknown origin) at Cys285 residue at 0.4 uM incubated for 30 mins by rhodamine-maleimide staining based SDS-PAGE analysis
T2 sequence (whole entry): T1 sequence (P37231 whole entry)

3T3-L1 = assay: Induction of adipocyte differentiation in mouse 3T3-L1 cells assessed as lipid accumulation at 1 uM measured after 48 hrs in presence of 1-oxido-1-(4-(tosyloxy)phenyl)-1lambda4-benzo[d][1,3,2]thiaselenazol-5-yl 4-methylbenzenesulfonate by Oil red O staining based inverted microscopic analysis; type: functional, cell-based
[6] = Toxicity in male db/db mouse model assessed as increase in serum AST level at 10 mg/kg/day, po administered for 4 weeks by ELISA; type: organism-based; conditions: in vivo, 672 h
[7] = Toxicity in male db/db mouse model assessed as increase in blood cholesterol level at 10 mg/kg/day, po administered for 4 weeks by ELISA; type: organism-based; conditions: in vivo, 672 h
[8] = Toxicity in male db/db mouse model assessed as lipid accumulation in liver at 10 mg/kg/day, po administered for 4 weeks; type: organism-based; conditions: in vivo, 672 h
[9] = Toxicity in male db/db mouse model assessed as increase in brown adipocytes size at 10 mg/kg/day, po administered for 4 weeks by H and E staining based analysis; type: organism-based; conditions: in vivo, 672 h
[10] = Toxicity in male db/db mouse model assessed as increase in blood triglyceride level at 10 mg/kg/day, po administered for 4 weeks by ELISA; type: organism-based; conditions: in vivo, 672 h
[11] = Toxicity in male db/db mouse model assessed as increase in white adipocytes size at 10 mg/kg/day, po administered for 4 weeks by H and E staining based analysis; type: organism-based; conditions: in vivo, 672 h
[12] = Toxicity in male db/db mouse model assessed as hepatomegaly in liver at 10 mg/kg/day, po administered for 4 weeks; type: organism-based; conditions: in vivo, 672 h
[13] = Toxicity in male db/db mouse model assessed as increase in serum ALT level at 10 mg/kg/day, po administered for 4 weeks by ELISA; type: organism-based; conditions: in vivo, 672 h

| SMILES | IC50 [1] [µM] | Ki [2] [µM] | further results |
| --- | --- | --- | --- |
| CC(C)(C)c1ccc(S2(=O)=N[Se]c3cc(C(C)(C)C)ccc32)cc1 (stereo not given) | 1.24 | 0.45 |  |
| COC(=O)c1ccc2c(c1)[Se]N=S2(C)=O (stereo not given) | > 50 | > 18 |  |
| O=S1(c2ccccc2)=N[Se]c2ccccc21 (stereo not given) | > 50 | > 18 |  |
| CS1(=O)=N[Se]c2cc(Cl)ccc21 (stereo not given) | > 50 | > 18 |  |
| O=S1(C2CC2)=N[Se]c2ccccc21 (stereo not given) | > 50 | > 18 |  |
| O=S1(c2ccc(-c3ccccc3)cc2)=N[Se]c2cc(-c3ccccc3)ccc21 (stereo not given) | 1.68 | 0.6 |  |
| CCCc1ccc(S2(=O)=N[Se]c3cc(CCC)ccc32)cc1 (stereo not given) | 2.11 | 0.76 |  |
| CN(CCOc1ccc(CC2SC(=O)NC2=O)cc1)c1ccccn1 (stereo not given) [ROSIGLITAZONE] |  |  | Activity [3]: Toxic; Activity [4]: Toxic; Activity [5]: inactive; Activity (3T3-L1): inactive; Activity [6]: Toxic; Activity [7]: Toxic; Activity [8]: Toxic; Activity [9]: Toxic; Activity [10]: Non-toxic; Activity [11]: Toxic; Activity [12]: Toxic; Activity [13]: Toxic |
| O=S(=O)(Oc1ccc(S2(=O)=N[Se]c3cc(OS(=O)(=O)C(F)(F)F)ccc32)cc1)C(F)(F)F (stereo not given) | 2.48 | 0.89 |  |
| COc1cccc(S2(=O)=N[Se]c3ccc(OC)cc32)c1 (stereo not given) | 3.28 | 1.18 |  |
| O=S1(c2cccc(Cl)c2)=N[Se]c2ccc(Cl)cc21 (stereo not given) | 0.64 | 0.23 |  |
| O=S1(CCl)=N[Se]c2ccccc21 (stereo not given) | > 50 | > 18 |  |
| Cc1cc(C)cc(S2(=O)=N[Se]c3c(C)cc(C)cc32)c1 (stereo not given) | 38.2 | 13.7 |  |
| Cc1ccc2c(c1)[Se]N=S2(C)=O (stereo not given) | > 50 | > 18 |  |
| CCS1(=O)=N[Se]c2ccccc21 (stereo not given) | > 50 | > 18 |  |
| O=S1(c2ccc(Cl)cc2)=N[Se]c2cc(Cl)ccc21 (stereo not given) | 40.4 | 14.5 |  |
| CS1(=O)=N[Se]c2ccccc21 (stereo not given) | > 50 | > 18 |  |
| CS1(=O)=N[Se]c2ccc(Cl)cc21 (stereo not given) | > 50 | > 18 |  |
| Cc1ccc(S2(=O)=N[Se]c3cc(C)ccc32)cc1 (stereo not given) | 12.6 | 4.52 |  |
| O=S1(c2ccc(C(F)(F)F)cc2)=N[Se]c2cc(C(F)(F)F)ccc21 (stereo not given) | 1.73 | 0.62 |  |
| CS1(=O)=N[Se]c2cccc(Cl)c21 (stereo not given) | > 50 | > 18 |  |
| Cc1cccc(S2(=O)=N[Se]c3ccc(C)cc32)c1 (stereo not given) | 8.26 | 2.97 |  |
| O=[N+]([O-])c1ccc(S2(=O)=N[Se]c3cc([N+](=O)[O-])ccc32)cc1 (stereo not given) | 0.67 | 0.24 |  |
| Cc1ccccc1S1(=O)=N[Se]c2cccc(C)c21 (stereo not given) | 39.3 | 14.1 |  |
| O=S1(c2ccc(Br)cc2)=N[Se]c2cc(Br)ccc21 (stereo not given) | 1.48 | 0.53 |  |
